Assay results reported in patent US11919933B2, “Use of MYOG gene as target in preparation of drug for treating cardiomyocyte apoptosis-associated cardiovascular disease” (GUANGDONG BEATING ORIGIN REGENERATIVE MEDICINE CO., LTD., priority 2020, dated 2024).
Counter-ions that a name gives are not always drawn.

Assays:
Assay type in all cases: cell-based, human
[1] = tested on: MYOG expression in hiPSC-MYOG cells; test: qPCR detection of MYOG mRNA expression levels after Dox induction; conditions: Dox 2 μg/mL
Procedure: 2.1 Induction: The expression of MYOG was induced by adding Dox (Sigma, D9891) at a final concentration of 2 μg/mL to STEMUP, and DMSO was used as a control. In the control group, only DMSO (denoted as C1) was added to STEMUP. In the experimental group, both DOX and DMSO were added to STEMUP, where DOX was first added to DMSO, and then a resulting mixture (denoted as C2) was added to STEMUP. A final concentration of DOX in STEMUP was 2 μg/mL, and the C1 and C2 were added at a same amount. 2.2 Total RNA extraction: The UN1Q-10 column Trizol total RNA extraction kit (Sangon Biotech, B511321-0100) was used to extract total RNA of the cells (a sample was treated with deoxyribonuclease I (DNase I, Sangon Biotech, B618252) for 30 min in advance). 2.3 Reverse transcription: RNA was reverse-transcribed with the reverse transcription kit iScript Reverse Transcription Supermix (Bio-Rad, 1708841). 2.4 qPCR detection of MYOG mRNA expression levels: According to the instructions of SsoAdvanced™ Universal SYBR® Green Supermix (Bio-Rad, 1725271), the PikoReal Real-Time PCR system (Thermo Fisher) was used to design primers with […] as an internal reference, and then MYOG expression levels in hiPSC and hiPSC-MYOG (Dox-induced group and DMSO control group) were detected. Sequences of the primers were as follows: […]

hiPSC-CMs [2] = test: PrestoBlue cell viability assay of angiotensin II-treated hiPSC-CMs; conditions: angiotensin II 100 μM and 1 mM, long-term treatment (6 d and 10 d)
Procedure: (§1) 2.1 Induction of hiPSC-CM apoptosis with angiotensin II: Purified hiPSC-CMs were cultivated in a cardiomyocyte medium (MedChemExpress, HY-13948) with angiotensin II at different concentrations (1 nM, 10 nM, 100 nM, 1 μM, 10 μM, 100 μM, and 1 mM), and the angiotensin II-containing medium was changed every 2 days.
2.2.1 A cardiomyocyte viability was detected with the PrestoBlue cell viability assay reagent (Invitrogen, A13261) at 24 h, 48 h, 6 d, and 10 d, and results are shown in FIG. 3.

hiPSC-CMs [3] = test: Annexin V apoptosis assay (flow cytometry) of angiotensin II-treated hiPSC-CMs; conditions: angiotensin II 100 μM and 1 mM, 10 d
Procedure: as §1
2.2.2 The apoptosis of cardiomyocytes treated with angiotensin II (100 μM and 1 mM) and untreated with angiotensin II on day 10 was detected with the apoptosis assay kit Annexin V, Alexa Fluor™488 conjugate (Invitrogen, V13201). Cardiomyocytes were labeled with the apoptosis marker Annexin V and then assayed with a FACSAria™ II flow cytometer (BD).

hiPSC-MYOG-CMs = test: TUNEL apoptosis test of hiPSC-MYOG-CMs (Ang II / Dox groups); conditions: angiotensin II 1 mM, 6 d
Procedure: 5.1 Induction of hiPSC-MYOG-CM apoptosis with angiotensin II: Purified hiPSC-MYOG-CMs were divided into 4 groups (Ang II(+)&Dox(+), Ang II(+)&Dox(−), Ang II(−)&Dox(+), and Ang II(−)&Dox(−)) and then treated for 6 d with a Dox having a concentration of 2 μg/mL and an angiotensin II having a concentration of 1 mM.
5.3 Apoptosis assay: TUNEL test: The TdT in situ apoptosis detection kit (R&D Systems, 4812-30-K) was used to detect the apoptosis of cardiomyocytes in the 4 groups (Ang II(+)&Dox(+), Ang II(+)&Dox(−), Ang II(−)&Dox(+), and Ang II(−)&Dox(−)). Cardiomyocytes were digested, then added on a glass slide, and stained according to the kit instructions. Nuclei were labeled with DAPI.

hiPSC-CMs [4] = test: TUNEL apoptosis test of angiotensin II-treated hiPSC-CMs; conditions: angiotensin II 100 μM and 1 mM, 10 d
Procedure: as §1
2.2.3 TUNEL test: The TdT in situ apoptosis detection kit (R&D Systems, 4812-30-K) was used to detect the apoptosis of cardiomyocytes treated with angiotensin II (1 nM, 1 μM, 100 μM, and 1 mM) and untreated with angiotensin II on day 10. Cardiomyocytes were digested, then added on a glass slide, and stained according to the kit instructions, and nuclei were labeled with DAPI.

Row | Molecule | expression level of MYOG in the Dox-induced group versus the DMSO control group [1] | cell viability (hiPSC-CMs [2]) | proportion of apoptotic cells (Annexin V) (hiPSC-CMs [3]) | apoptotic cell proportion relative to the control group (hiPSC-MYOG-CMs) [times] | proportion of apoptotic cells (TUNEL) (hiPSC-CMs [4])
1 | C[C@H]1c2cccc(O)c2C(=O)C2=C(O)[C@]3(O)C(=O)C(C(N)=O)=C(O)[C@@H](N(C)C)[C@@H]3[C@@H](O)[C@@H]21 [Dox, doxycycline hydrochloride] | more than 100 times |  |  |  | 
2 | angiotensin II (DRVYIHPF; Angiotensin-2; UniProt P01019 25-32, looked up) [common inducer for establishing cardiomyocyte apoptosis models] |  | decreased significantly | increased significantly | 2.01 | increased significantly
